Results published in paper PMC12325182, “Discovery of novel and potent celastrol derivatives as PRDX1 inhibitors for cancer therapy through structure-based virtual screening” (Frontiers in Pharmacology, 2025).

What was measured:
[1] = target: T1, PRDX1 (Homo sapiens, UniProt Q06830); experiment: MST assay; assay type: binding; details: MST; mean ± SD, n = 3; read-out: PRDX1 (Kd)
T1 sequence (Q06830 1-199): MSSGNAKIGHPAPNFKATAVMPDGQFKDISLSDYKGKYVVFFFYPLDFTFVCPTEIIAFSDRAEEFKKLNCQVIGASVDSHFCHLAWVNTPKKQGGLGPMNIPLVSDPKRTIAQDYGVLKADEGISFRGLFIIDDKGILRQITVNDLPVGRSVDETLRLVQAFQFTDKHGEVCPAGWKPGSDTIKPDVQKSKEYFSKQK
Method: The MST assays were carried out in a buffer composed of 50 mM Tris, 200 mM NaCl, and 0.1% (v/v) TWEEN20. PRDX1 was tagged with the MO-L011 protein labeling kit (RED-NHS second Generation). The diluted compounds were combined with the tagged PRDX1 protein and allowed to stand at room temperature for 5 minutes. Subsequently, the reaction mixture was loaded into capillaries, and measurements were taken using a Monolith NT.115 instrument.

[2] = target: T1, PRDX1; experiment: Kinetics studies of PRDX1 inhibition; assay type: biochemical; details: mean ± SD, n = 3
Method: The PRDX1 protein (0.5 nM) was incubated with varying concentrations of the CP1 (0, 0.6, 1.5, and 3.8 nM) at room temperature for 1 h. Subsequently, the Trx/TrxR/NADPH mixture was added and the enzymatic reaction was initiated by the addition of different concentrations of H2O2 (5–1,000 μM). The absorbance changes at 340 nm were monitored in real-time using a microplate reader. Kinetic parameters, including the Michaelis constant (Km), maximum reaction rate (Vmax), and α value, were determined by fitting the data to the Michaelis-Menten equation.

`CC1=C(CC(=O)/C=C/c2cccc(CO)c2)C(=O)C=C2C1=CC=C1[C@@]2(C)CC[C@@]2(C)C3C[C@](C)(C(=O)CCc4nc(C(O)C(O)O)c(C)nc4C)CC[C@]3(C)CC[C@]12C` (stereo partly shown) [CP1] was tested, and the Kd [1] was 0.06 ± 0.001 nM, the “Vmax” value ([2]; CP1 concentration 0.6 nM) was 56.2 ± 1.94 M/s and the “Vmax” value ([2]; CP1 concentration 1.5 nM) was 40.7 ± 2.42 M/s. For the same molecule, the “Vmax” value ([2]; CP1 concentration 3.8 nM) was 26.8 ± 1.07 M/s.
